Source: ChEMBL document CHEMBL1151373, “Antitumor agents. 49 tricin, kaempferol-3-O-beta-D-glucopyranoside and (+)-nortrachelogenin, antileukemic principles from Wikstroemia indica” (1981)

How the values were obtained:
Type in all cases: functional
[1] = test system: P388; assay: Cytotoxicity against mouse P388 cells xenografted in CDF1 mouse at 1 mg/kg relative to control
[2] = test system: P388; assay: Cytotoxicity against mouse P388 cells xenografted in CDF1 mouse at 4 mg/kg relative to control
[3] = test system: P388; assay: Cytotoxicity against mouse P388 cells xenografted in BDF1 mouse at 16 mg/kg relative to control
[4] = test system: P388; assay: Cytotoxicity against mouse P388 cells xenografted in CDF1 mouse at 16 mg/kg relative to control
[5] = test system: P388; assay: Cytotoxicity against mouse P388 cells xenografted in CDF1 mouse at 2 mg/kg relative to control
[6] = test system: P388; assay: Cytotoxicity against mouse P388 cells xenografted in BDF1 mouse at 4 mg/kg relative to control
[7] = test system: P388; assay: Cytotoxicity against mouse P388 cells xenografted in CDF1 mouse at 10 mg/kg relative to control
[8] = test system: P388; assay: Cytotoxicity against mouse P388 cells xenografted in BDF1 mouse at 8 mg/kg relative to control
[9] = test system: P388; assay: Cytotoxicity against mouse P388 cells xenografted in BDF1 mouse at 6 mg/kg relative to control
[10] = test system: P388; assay: Cytotoxicity against mouse P388 cells xenografted in BDF1 mouse at 12.5 mg/kg relative to control
[11] = Growth inhibition of mouse EAC cells xenografted in CF1 mouse at 3 mg/kg/day, ip; conditions: Ehrlich, route intraperitoneal

In the case of COc1cc(C[C@@H]2COC(=O)[C@@]2(O)Cc2ccc(O)c(OC)c2)ccc1O [WIKSTROMOL], the T/C [1] is reported as 130%, the T/C [2] is reported as 137% and the T/C [3] is reported as 130%. It also gave a T/C [4] of 154%, a T/C [5] of 141% and a T/C [6] of 122%. The T/C [7] was 146% and the T/C [8] was 130%.
For O=c1c(O[C@@H]2O[C@H](CO)[C@@H](O)[C@H](O)[C@H]2O)c(-c2ccc(O)cc2)oc2cc(O)cc(O)c12 [ASTRAGALIN], the T/C [9] was 122% and the T/C [10] was 130%.
COc1cc(-c2cc(=O)c3c(O)cc(O)cc3o2)cc(OC)c1O [TRICIN] showed a T/C [9] of 133% and a T/C [10] of 174%.
Work on COc1cc2cc(Oc3ccc4ccc(=O)oc4c3)c(=O)oc2cc1O [DAPHNORETIN] yielded an inhibition in vivo at 3 mg/kg/day [11] of 97%.
